Values of other authors as cited in patent US12569487B2, “Treatment of hidradenitis with jak inhibitors” (PFIZER INC., priority 2019, dated 2026).
Where two headings read alike, the source gives them in different places.

Test system: patients with moderate to severe HS
Details: for Clinical response rate (hidradenitis suppurativa clinical response, HiSCR): adalimumab weekly

adalimumab
Clinical response rate (hidradenitis suppurativa clinical response, HiSCR) (PIONEER I, Week 12, placebo 26.0%, P=0.003, oral antibiotics stopped at least 28 days before baseline): 41.8%
Clinical response rate (hidradenitis suppurativa clinical response, HiSCR) (PIONEER II, Week 12, placebo 27.6%, P<0.001, stable tetracycline-class antibiotics allowed): 58.9%
Rank-ordered secondary outcomes (lesions, pain, modified Sartorius score) versus placebo (Week 12, in PIONEER II only): significantly greater improvement
Patients with moderate to severe HS who did not respond to treatment (summary of the PIONEER trials): ~40%
